Reference: ChEMBL document CHEMBL1201862, “PubChem BioAssay data set” (2004)
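48-hour exposure; five concentrations; linearly interpolated endpoints. Here, GI50 denotes the concentration required for 50% inhibition of growth.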 The source made the active and inactive calls. No stated cut-off is given here; in the data, active = GI50 up to about 1.1 µM and inactive = higher.

Columns and labels:
Assay in all cases: DTP human tumour cell line panel, 48 h
OVCAR-5 = system: OVCAR-5
SF-295 = system: SF-295
HL-60 = system: HL-60
HCC 2998 = system: HCC 2998
SNB-19 = system: SNB-19
TK-10 = system: TK-10
IGROV-1 = system: IGROV-1
NCI/ADR-RES = system: NCI/ADR-RES
ACHN = system: ACHN
NCI-H226 = system: NCI-H226
T47D = system: T47D
HCT-116 = system: HCT-116
UO-31 = system: UO-31
SF-268 = system: SF-268
SN12C = system: SN12C
MDA-N = system: MDA-N
A498 = system: A498
Hs-578T = system: Hs-578T
OVCAR-3 = system: OVCAR-3
DU-145 = system: DU-145
OVCAR-8 = system: OVCAR-8
MOLT-4 = system: MOLT-4
786-0 = system: 786-0
SK-MEL-28 = system: SK-MEL-28
MCF7 = system: MCF7
U-251 = system: U-251
SK-MEL-5 = system: SK-MEL-5
MDA-MB-231 = system: MDA-MB-231
K562 = system: K562
SF-539 = system: SF-539
CAKI-1 = system: CAKI-1
HOP-62 = system: HOP-62
EKVX = system: EKVX
CCRF-CEM = system: CCRF-CEM
KM12 = system: KM12
NCI-H460 = system: NCI-H460
SR = system: SR
SK-OV-3 = system: SK-OV-3
BT-549 = system: BT-549
A549 = system: A549
COLO 205 = system: COLO 205
SW-620 = system: SW-620
PC-3 = system: PC-3
SNB-75 = system: SNB-75
HCT-15 = system: HCT-15
UACC-257 = system: UACC-257
UACC-62 = system: UACC-62
NCI-H23 = system: NCI-H23
NCI-H522 = system: NCI-H522
OVCAR-4 = system: OVCAR-4
HT-29 = system: HT-29
RPMI-8226 = system: RPMI-8226
RXF 393 = system: RXF 393
SK-MEL-2 = system: SK-MEL-2
LOX IMVI = system: LOX IMVI
HOP-92 = system: HOP-92
M14 = system: M14
MDA-MB-435 = system: MDA-MB-435

C[C@H](CSC(=O)c1ccccc1)C(=O)N1c2ccccc2C[C@H]1C(=O)O
GI50 (OVCAR-5): > 100 µM (inactive)
GI50 (SF-295): > 100 µM (inactive)
GI50 (HL-60): 33.7 µM (inactive)
GI50 (HCC 2998): 91.8 µM (inactive)
GI50 (SNB-19): > 100 µM (inactive)
GI50 (TK-10): > 100 µM (inactive)
GI50 (IGROV-1): > 100 µM (inactive)
GI50 (NCI/ADR-RES): 50.6 µM (inactive)
GI50 (ACHN): > 100 µM (inactive)
GI50 (NCI-H226): > 100 µM (inactive)
GI50 (T47D): > 100 µM (inactive)
GI50 (HCT-116): 41.2 µM (inactive)
GI50 (UO-31): 86.3 µM (inactive)
GI50 (SF-268): > 100 µM (inactive)
GI50 (SN12C): > 100 µM (inactive)
GI50 (MDA-N): > 100 µM (inactive)
GI50 (A498): > 100 µM (inactive)
GI50 (Hs-578T): > 100 µM (inactive)
GI50 (OVCAR-3): > 100 µM (inactive)
GI50 (DU-145): > 100 µM (inactive)
GI50 (OVCAR-8): > 100 µM (inactive)
GI50 (MOLT-4): 75.7 µM (inactive)
GI50 (786-0): > 10 µM (inactive)
GI50 (SK-MEL-28): > 100 µM (inactive)
GI50 (MCF7): 46 µM (inactive)
GI50 (U-251): > 100 µM (inactive)
GI50 (SK-MEL-5): 67.8 µM (inactive)
GI50 (MDA-MB-231): > 100 µM (inactive)
GI50 (K562): 17.5 µM (inactive)
GI50 (SF-539): > 100 µM (inactive)
GI50 (CAKI-1): > 100 µM (inactive)
GI50 (HOP-62): > 100 µM (inactive)
GI50 (EKVX): > 100 µM (inactive)
GI50 (CCRF-CEM): 32.1 µM (inactive)
GI50 (KM12): > 10 µM (inactive)
GI50 (NCI-H460): > 10 µM (inactive)
GI50 (SR): 61.1 µM (inactive)
GI50 (SK-OV-3): > 100 µM (inactive)
GI50 (BT-549): > 100 µM (inactive)
GI50 (A549): > 100 µM (inactive)
GI50 (COLO 205): 63 µM (inactive)
GI50 (SW-620): 35.2 µM (inactive)
GI50 (PC-3): > 100 µM (inactive)
GI50 (SNB-75): 35.3 µM (inactive)
GI50 (HCT-15): 30.5 µM
GI50 (UACC-257): > 100 µM (inactive)
GI50 (UACC-62): > 100 µM (inactive)
GI50 (NCI-H23): > 100 µM (inactive)
GI50 (NCI-H522): 30.4 µM (inactive)
GI50 (OVCAR-4): > 100 µM (inactive)
GI50 (HT-29): 47.2 µM (inactive)

CC(C)(C)[Si](C)(C)OCC1CCC(n2cnc3c(N)ncnc32)O1 (centres undefined)
GI50 (OVCAR-5): > 100 µM (inactive)
GI50 (SF-295): 81.8 µM (inactive)
GI50 (HL-60): 48.9 µM (inactive)
GI50 (RPMI-8226): 42 µM (inactive)
GI50 (SNB-19): > 100 µM (inactive)
GI50 (TK-10): > 100 µM (inactive)
GI50 (RXF 393): 84.1 µM (inactive)
GI50 (SK-MEL-2): 32.1 µM (inactive)
GI50 (IGROV-1): 53.8 µM (inactive)
GI50 (LOX IMVI): > 100 µM (inactive)
GI50 (NCI-H226): > 100 µM (inactive)
GI50 (T47D): 27.2 µM (inactive)
GI50 (HCT-116): 39.2 µM (inactive)
GI50 (UO-31): 44.4 µM (inactive)
GI50 (SN12C): 69.2 µM (inactive)
GI50 (MDA-N): 47.1 µM (inactive)
GI50 (A498): > 100 µM (inactive)
GI50 (Hs-578T): 72.1 µM (inactive)
GI50 (OVCAR-3): 48.9 µM (inactive)
GI50 (DU-145): 73.8 µM (inactive)
GI50 (OVCAR-8): 45.4 µM (inactive)
GI50 (MOLT-4): 14.7 µM (inactive)
GI50 (SK-MEL-28): 72.8 µM (inactive)
GI50 (U-251): > 100 µM (inactive)
GI50 (SK-MEL-5): 17.1 µM (inactive)
GI50 (HOP-92): > 100 µM (inactive)
GI50 (MDA-MB-231): 54.1 µM (inactive)
GI50 (M14): 38.8 µM (inactive)
GI50 (K562): 3.45 µM (inactive)
GI50 (CAKI-1): > 100 µM (inactive)
GI50 (HOP-62): 95.7 µM (inactive)
GI50 (CCRF-CEM): 13.9 µM (inactive)
GI50 (MDA-MB-435): 25.9 µM (inactive)
GI50 (KM12): 39.1 µM (inactive)
GI50 (NCI-H460): 54.7 µM (inactive)
GI50 (SR): > 10 µM (inactive)
GI50 (SK-OV-3): 65 µM (inactive)
GI50 (BT-549): 27 µM (inactive)
GI50 (COLO 205): > 100 µM (inactive)
GI50 (SW-620): > 100 µM (inactive)
GI50 (PC-3): 28.2 µM (inactive)
GI50 (SNB-75): 67.8 µM (inactive)
GI50 (HCT-15): 72.1 µM
GI50 (UACC-257): 33.7 µM (inactive)
GI50 (UACC-62): 59.2 µM (inactive)
GI50 (NCI-H23): 30.6 µM (inactive)
GI50 (OVCAR-4): > 100 µM (inactive)
GI50 (HT-29): 94.4 µM (inactive)
